Among the test systems are A549 NSCLC; ACHN renal; COLO 205 colon; HS 578T breast; NCI-H23 lung; PC-3 prostate; SF-295 CNS; TK-10 renal; UACC-257 melanoma; CCRF-CEM leukemia.
Common to all, as to experiment: growth of human tumour cells (NCI), 48 h

Among the data in PubChem BioAssay (NCI) are GI50 and TGI values, retold here.

“And” between values parts separate entries of the source, which are not always exact repeats. Identical values can stand only once.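 Grown in 96-well plates, cells were treated for 48 hours with each compound at five concentrations. Insufficient inhibition: endpoint recorded as highest concentration tested. Abbreviation: GI50, concentration required for 50% inhibition of growth. TGI: total growth inhibition.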 Where a SMILES comes first, the peptide text is derived from it. [ ]: non-standard residue; d: D form. 2Nal = N[CH](Cc1ccc2ccccc2c1)C(=O)O Where only a bound is given, the exact number is not on record here.

With `COCCOC(C)C(/C=N/NC(N)=S)=N/NC(N)=S` (configuration not stated), the GI50 is greater than 100 µM in the assay on A549 NSCLC; greater than 100 µM with ACHN renal; greater than 100 µM with COLO 205 colon; greater than 100 µM in the assay on HS 578T breast; greater than 100 µM in the assay with NCI-H23 lung; 0.0574 µM with PC-3 prostate. Moreover, the GI50 with TK-10 renal was greater than 100 µM; in the assay on UACC-257 melanoma, 0.0232 µM. Also, the TGI with A549 NSCLC, with ACHN renal, in the assay with COLO 205 colon, in the assay on HS 578T breast, in the assay with NCI-H23 lung and in the assay on PC-3 prostate was greater than 100 µM each time. The TGI in the assay with SF-295 CNS, in the assay with TK-10 renal and in the assay on UACC-257 melanoma was greater than 100 µM each time.

`Clc1ccc2c(NCCCN3CCN(c4nc(-n5ccnc5)nc5ccccc45)CC3)ccnc2c1`: the GI50 with ACHN renal was greater than 23.4 µM; in the assay with CCRF-CEM leukemia, 2.87 µM; with COLO 205 colon, greater than 100 µM; in the assay with HS 578T breast, 2.28 µM; in the assay on NCI-H23 lung it was greater than 27.5 µM; in the assay on SF-295 CNS, 1.88 µM. Further, the GI50 with TK-10 renal is 1.72 µM; with UACC-257 melanoma, 2 µM. The TGI in the assay on ACHN renal is greater than 56.5 µM; in the assay with CCRF-CEM leukemia, greater than 100 µM; with COLO 205 colon it was greater than 100 µM; in the assay with HS 578T breast it was 19.2 µM; in the assay on NCI-H23 lung, greater than 100 µM; in the assay on PC-3 prostate, greater than 100 µM. The TGI amounted to 3.52 µM with SF-295 CNS, 3.39 µM in the assay with TK-10 renal and 3.81 µM in the assay on UACC-257 melanoma.

With `C=CC1=C(C)C2=NC1=CC1=NC(=C(CC)/C1=C/O)C=C1C=C3C(=O)C(C(=O)OC)C(=C4NC(=C2)C(C)C4CCC(=O)OC/C=C(\C)CCCC(C)CCCC(C)CCCC(C)C)C3=N1` (configuration not stated) (tested in a mixture with another compound), the TGI with A549 NSCLC, in the assay on ACHN renal, in the assay with COLO 205 colon, with HS 578T breast, in the assay on NCI-H23 lung and with PC-3 prostate was greater than 100 µM in each case. The TGI in the assay with SF-295 CNS, in the assay on TK-10 renal and with UACC-257 melanoma was greater than 100 µM throughout.

Take `CC(NC(=O)C(N)Cc1ccccc1)C(=O)NC(Cc1ccc(O)cc1)C(=O)NC(Cc1c[nH]c2ccccc12)C(=O)NC(CCCCN)C(=O)NC(C(=O)NC(C)C(=O)NC(Cc1ccc2ccccc2c1)C(N)=O)C(C)C` (configuration not stated) (H-FAYWKVA[2Nal]-NH2; configuration not given here): the GI50 was 20.7 µM in the assay with A549 NSCLC; 22.7 µM in the assay with ACHN renal; 16 µM in the assay on CCRF-CEM leukemia; 27.1 µM in the assay with COLO 205 colon; 25.7 µM in the assay with NCI-H23 lung; greater than 100 µM in the assay on UACC-257 melanoma. Further, the TGI was > 12.5 µM and 48.7 µM in the assay with A549 NSCLC; > 12.5 µM and 52.1 µM in the assay with ACHN renal; > 12.5 µM and 29.4 µM in the assay with CCRF-CEM leukemia; > 12.5 µM and 61.2 µM in the assay with COLO 205 colon; greater than 12.5 µM with HS 578T breast; > 12.5 µM and 75.4 µM in the assay with NCI-H23 lung. Moreover, the TGI was greater than 12.5 µM in the assay on PC-3 prostate, greater than 12.5 µM in the assay with SF-295 CNS and greater than 100 µM in the assay on UACC-257 melanoma.

For `COc1ccc2cc(C(=O)/C=C/c3ccc(OC)c(OC)c3)ccc2c1`, the GI50 in the assay with A549 NSCLC is 4.29 µM; in the assay on ACHN renal, 14.5 µM; with COLO 205 colon, 30.7 µM; with PC-3 prostate it was 20.2 µM; in the assay with SF-295 CNS, 35.6 µM; in the assay on TK-10 renal it was 53.1 µM. Further, the TGI is 30.3 µM with A549 NSCLC; 31.2 µM in the assay on ACHN renal; 73.5 µM with COLO 205 colon; greater than 100 µM in the assay on PC-3 prostate; greater than 100 µM in the assay with SF-295 CNS; greater than 100 µM with TK-10 renal.

Regarding `Cc1ccc(NC2=C(Cl)C(=O)c3nc(C)ccc3C2=O)cc1`, the GI50 with A549 NSCLC is 1.81 µM; in the assay on ACHN renal, 1.59 µM; in the assay with CCRF-CEM leukemia, 2.65 µM; in the assay on COLO 205 colon, 1.93 µM; in the assay with HS 578T breast it was 1.88 µM; in the assay with PC-3 prostate, 1.19 µM. The GI50 in the assay with SF-295 CNS is 1.55 µM; in the assay on TK-10 renal, 2.27 µM; in the assay on UACC-257 melanoma, 1.58 µM. The TGI is 4.39 µM in the assay on A549 NSCLC; 2.97 µM with ACHN renal; greater than 100 µM in the assay on CCRF-CEM leukemia; 4.37 µM with COLO 205 colon; 4.8 µM in the assay on HS 578T breast; 2.78 µM with PC-3 prostate. In addition, the values for the TGI in the assay on SF-295 CNS, in the assay with TK-10 renal and in the assay with UACC-257 melanoma were 2.95 µM, 3.81 µM and 3 µM, respectively.

`O=C1C=C(Br)C(=O)C(Br)=C1`: the TGI in the assay with A549 NSCLC is greater than 100 µM; in the assay on ACHN renal, greater than 100 µM; in the assay on CCRF-CEM leukemia, greater than 81.6 µM; in the assay with COLO 205 colon, greater than 100 µM; in the assay with NCI-H23 lung, greater than 100 µM; in the assay with SF-295 CNS it was greater than 100 µM. Besides, the TGI in the assay on TK-10 renal and with UACC-257 melanoma was greater than 100 µM in each case.

As to `COc1ccc(/C=N/NC(=O)O)cc1`, the TGI in the assay with A549 NSCLC, in the assay with ACHN renal, in the assay with COLO 205 colon, in the assay with HS 578T breast, in the assay on NCI-H23 lung and in the assay on PC-3 prostate was greater than 100 µM each time. For the same compound, the TGI in the assay with SF-295 CNS, in the assay on TK-10 renal and in the assay on UACC-257 melanoma was greater than 100 µM each time.

In the case of `Cc1ccc(C(=O)/C=C/c2ccccc2Cl)cc1`, the TGI turned out to be 85.4 µM with A549 NSCLC; 29.4 µM in the assay with ACHN renal; 42.6 µM in the assay with CCRF-CEM leukemia; 47.2 µM with COLO 205 colon; 40.1 µM in the assay on NCI-H23 lung; 39.8 µM with SF-295 CNS. Further, the figures for the TGI with TK-10 renal and in the assay on UACC-257 melanoma were 61.7 µM and 33.6 µM, respectively.

Consider `CNC(=O)OCc1nc(S(C)=O)n(C)c1COC(=O)NC` (configuration not stated), for which the TGI is greater than 46.4 µM in the assay on A549 NSCLC; greater than 78.6 µM in the assay on ACHN renal; greater than 100 µM in the assay on CCRF-CEM leukemia; greater than 62.6 µM in the assay with COLO 205 colon; greater than 100 µM in the assay with NCI-H23 lung; greater than 100 µM in the assay with SF-295 CNS. For the same compound, the TGI with TK-10 renal and in the assay on UACC-257 melanoma was greater than 100 µM throughout.

As to `N#Cc1c(NC(=O)CCC(=O)O)ccc2ccccc12`, the TGI in the assay on A549 NSCLC, in the assay on ACHN renal, in the assay with COLO 205 colon, in the assay on HS 578T breast, with NCI-H23 lung and with PC-3 prostate was greater than 100 µM in each case. Moreover, the TGI in the assay on SF-295 CNS, in the assay with TK-10 renal and with UACC-257 melanoma was greater than 100 µM in each case.

Take `Cc1ccc(NC(=O)SCCC(=O)O)cc1NC(=O)SCCC(=O)O`: the TGI in the assay on A549 NSCLC was greater than 100 µM; in the assay on ACHN renal, greater than 100 µM; in the assay with CCRF-CEM leukemia, greater than 100 µM; in the assay with COLO 205 colon it was greater than 10 µM; with NCI-H23 lung, greater than 100 µM; in the assay with SF-295 CNS it was greater than 100 µM. Further, the TGI in the assay with TK-10 renal and with UACC-257 melanoma was greater than 100 µM in each case.

For `Cc1ccnc2c1NC(=O)c1cccnc1N2C1CC1`, the GI50 with A549 NSCLC, in the assay with ACHN renal, in the assay with CCRF-CEM leukemia, in the assay with COLO 205 colon, in the assay with HS 578T breast and with NCI-H23 lung was greater than 100 µM each time. Further, the GI50 in the assay on PC-3 prostate, in the assay on TK-10 renal and with UACC-257 melanoma was greater than 100 µM throughout. Also, the TGI with A549 NSCLC, with ACHN renal, in the assay with CCRF-CEM leukemia, with COLO 205 colon, in the assay on HS 578T breast and in the assay with NCI-H23 lung was greater than 100 µM in each case. The TGI in the assay on PC-3 prostate, with TK-10 renal and in the assay with UACC-257 melanoma was greater than 100 µM in each case.

As for `O=C(C#Cc1c[nH]c(=O)[nH]c1=O)c1ccccc1`, the TGI in the assay with A549 NSCLC was 64.1 µM; in the assay with ACHN renal, 29.6 µM; with CCRF-CEM leukemia it was 7.8 µM; in the assay on COLO 205 colon, 19.6 µM; in the assay on NCI-H23 lung, 27.6 µM; in the assay with SF-295 CNS it was greater than 100 µM. Besides, the TGI was determined as 26.7 µM in the assay with TK-10 renal and 23.8 µM in the assay on UACC-257 melanoma.

Consider `COC(=O)/C(=C/N1CCN(C(=O)c2ccco2)C1=S)C(C)=O`, for which the GI50 with A549 NSCLC was 19.3 µM; with ACHN renal, 4.05 µM; with COLO 205 colon, 12.6 µM; in the assay with NCI-H23 lung, 12.2 µM; with PC-3 prostate, 18.1 µM; with SF-295 CNS it was 18.6 µM. In addition, the GI50 in the assay on TK-10 renal is 3.54 µM; with UACC-257 melanoma, 17.2 µM. The TGI with A549 NSCLC was 39.7 µM; in the assay on ACHN renal, 17.8 µM; in the assay on COLO 205 colon it was 35.8 µM; in the assay on NCI-H23 lung, 31.9 µM; in the assay with PC-3 prostate, greater than 100 µM; in the assay on SF-295 CNS, 83.8 µM. Also, the TGI worked out at 14.9 µM in the assay on TK-10 renal and 39.3 µM in the assay on UACC-257 melanoma.

Take `COc1cc2cc(C(=O)O)[nH]c2cc1OCc1ccccc1`: the GI50 in the assay on ACHN renal, in the assay on CCRF-CEM leukemia, in the assay with COLO 205 colon, in the assay with HS 578T breast, with NCI-H23 lung and with PC-3 prostate was greater than 100 µM each time. The GI50 with SF-295 CNS is greater than 100 µM; in the assay with TK-10 renal, greater than 100 µM; in the assay on UACC-257 melanoma, 89.4 µM. For the same compound, the TGI in the assay with ACHN renal, in the assay on CCRF-CEM leukemia, with COLO 205 colon, in the assay on HS 578T breast, in the assay with NCI-H23 lung and in the assay with PC-3 prostate was greater than 100 µM in each case. Besides, the TGI in the assay with SF-295 CNS, in the assay on TK-10 renal and in the assay with UACC-257 melanoma was greater than 100 µM throughout.

For the compound `NC(C(=O)O)C(N)C(=O)O` (configuration not stated), the TGI in the assay with A549 NSCLC, in the assay with ACHN renal, in the assay on COLO 205 colon, in the assay on HS 578T breast, in the assay with NCI-H23 lung and in the assay on PC-3 prostate was greater than 100 µM throughout. Besides, the TGI with SF-295 CNS, in the assay on TK-10 renal and with UACC-257 melanoma was greater than 100 µM throughout.
